Patent US20050063903A1, “Combined use of cruciferous indoles and chelators for the treatment of papilloma virus-related conditions” (priority 2003, published 2005)

Key:
[1] = log cumulative stability constant; cited from earlier work
[2] = log cumulative stability constant; cited from earlier work; remark: listed apart in the source
[3] = log cumulative stability constant; cited from earlier work; remark: listed apart in the source
Vaccinia virus = details: monkey kidney cells; cited from earlier work
CaSki cells = experiment: MTS mitochondrial function assay, loss of cell viability, 72 hour cultures; format: cell-based, human; details: for Pa Effect Alone: Pa 2.5 mM; for SY Effect Alone: SY 150 μM
Method: (§1) In vitro cell culture experiments were performed to investigate the induction of apoptosis by combinations of Diindolylmethane (DIM), Silybin (SY), Picolinic Acid (PA), Sodium Butyrate (BA), and Gallium Nitrate (Ga) in relevant cervical cancer cells. The cell lines CaSki (containing multiple copies of integrated HPV16 DNA), C33A (HPV negative with mutant p53), were utilized. Cells were maintained and assays for apoptosis induction performed as previously described (Chen D Z, Qi M, Auborn K J and Carter T H, Indole-3-carbinol and diindolylmethane induce apoptosis of human cervical cancer cells and in murine HPV 16-transgenic preneoplastic cervical epithelium. J Nutr. 2001 December;131(12):3294-302). Novel combinations of DIM and various Iron/Zinc chelators were tested to assess and document greater than additive (synergistic) apoptosis-related activity in controlled 72 hour cultures.
(§2) The primary assay for apoptosis-related loss of cell viability was the mitochondrial function assay [reduction of 3-(4,5-dimethylthiazol-2-yl)-5-(3-carboxymethoxyphenyl)-2-(4-sulfophenyl)-2H-tetrazolium (MTS)] using a MTS kit (Promega, Madison, Wis.). A minimum of 4 replicate wells per condition were studied and absorbance at […] of the solution in individual wells was determined with a multi-well plate reader. Data were analyzed by plotting the mean and SD of cell viability versus concentration of DIM, Iron/Zinc chelator or other growth inhibitors.
(§3) Using doses for each agent at or below the ID50 levels, synergistic, apoptosis-related, reductions in cell viability were documented for both combinations of DIM and Iron disrupting compounds and for combinations of DIM and Zinc disrupting compounds. Results showing percent reductions of cell viability using the MTS assay for individual agents, combined effects, and extent of synergism are summarized in the following tables and FIGS. 1-3.

[4] = cited from earlier work
C33A cells = experiment: MTS mitochondrial function assay, loss of cell viability, 72 hour cultures; format: cell-based, human
Method: as §1, §2, §3

[5] = tested on: papillomavirus altered cervical cancer cell lines; details: cell culture; cited from earlier work
tumor tissue = experiment: Ga-67 SPECT scan in patients with oropharyngeal squamous cell cancer; format: in vivo, human; details: 8 millicuries intravenous
From the text: In order to reduce radiation-related side effects use of both conventional radiation and Cyberknife radiosurgery (Accuray, Sunnyvale, Calif.) were employed together with intravenous and oral DIM and intravenous Ga-67 isotope and Gallium nitrate. This combined approach allowed reduction of the total radiation dose from 7000 cGy to 3500 cGy. On the first treatment day the patient underwent Computerized Tomography (CT) with intravenous omnipaque to enhance 3 dimensional definition of the tumor mass. This was followed by a Ga-67 SPECT scan involving administration of 8 millicuries of Gallium-67 Citrate isotope (Cardinal Health, Denver, Colo.).
On the first treatment day the patient, weighing 50 kg, underwent Computerized Tomography (CT) with intravenous omnipaque to enhance the 3 dimensional definition of the recurrent tumor mass. This was followed by a Ga-67 SPECT scan involving administration of 8 millicuries of Gallium-67 isotope (Cardinal Health, Denver, Colo.).

cervical dysplasia = details: treated for 3 months; cited from earlier work
[6] = tested on: virus infected skin cells (HIV-1, HSV-2); details: cited from earlier work

c1ccc(-c2ccccn2)nc1 [BIP, 2,2′-bypryidyl]
Logβ-Fe^III [1]: 16.3
Logβ-Zn^II [2]: 13.2
Logβ-Ga^II [3]: 7.7
Concentrations shown to inhibit Vaccinia virus replication and ribonucleotide reductase (Vaccinia virus): 60 to 80 µM

CCCC(=O)[O-].[Na+] [BU, butyric acid sodium salt]
BU Effect Alone (CaSki cells; BU 150 μM, Table IV): −15%

CC(=O)N(O)CCCCCNC(=O)CCC(=O)N(O)CCCCCNC(=O)CCC(=O)N(O)CCCCCN [DFO, Desferrioxamine]
Logβ-Fe^III [1]: 30.5
Logβ-Zn^II [2]: 11.1
Logβ-Ga^II [3]: 27.6
Lipid Solubility [4]: Low

c1ccc2c(Cc3c[nH]c4ccccc34)c[nH]c2c1 [DIM, 3,3′-diindolylmethane]
DIM Effect Alone (C33A cells; DIM 25 μM, reduction of cell viability): −8%
DIM Effect Alone (CaSki cells; DIM 50 μM, Table II): −26%
DIM Effect Alone (CaSki cells; DIM 75 μM, Table II): −46%
DIM Effect Alone (CaSki cells; DIM 75 uM, Table III): −19%
DIM Effect Alone (CaSki cells; DIM 75 μM, Table IV): −46%
DIM Alone 75 uM (CaSki cells; DIM 75 uM, Table V): −19%
DIM Effect Alone (CaSki cells; DIM 100 uM, Table III): −21%
Concentration required for activity (markers of apoptosis) [5]: 50 µM

O=C(O)CN(CCN(CC(=O)O)CC(=O)O)CC(=O)O [EDTA, ethylenediaminetetraacetic acid]
Logβ-Fe^III [1]: 25.1
Logβ-Zn^II [2]: 16.5
Logβ-Ga^II [3]: 21.0

O=C([O-])CC(O)(CC(=O)[O-])C(=O)[O-].[67Ga+3] [Gallium-67 Citrate]
Uptake of Gallium by the tumor tissue in the scan (tumor tissue): preferential uptake

OCc1c[nH]c2ccccc12 [I3C, indole-3-carbinol]
Women with partial improvement (cervical dysplasia): about 50%

Cc1c(O)c(=O)ccn1C [L1, 1,2-Dimethyl-3-hydroxypyrid-4-one]
Logβ-Fe^III [1]: 37.2
Logβ-Zn^II [2]: 13.5
Logβ-Ga^II [3]: 32.6
Lipid Solubility [4]: Moderate

O=C(O)c1ccccn1 [Picolinic acid, pyridine-2-carboxylic acid]
Pa Effect Alone (CaSki cells; Table III line with DIM 75 uM): −13%
Pa Effect Alone (CaSki cells; Table III line with DIM 100 uM): −13%
Logβ-Fe^III [1]: 12.8
Logβ-Zn^II [2]: 12.9
Concentration required in cell culture when used alone ([6]; U.S. Pat. No. 6,410,570): 3 mM
Concentration required for slowing of growth and diminished viability ([6]; virus infected skin cells): 3,000 micromolar
Lipid Solubility [4]: High

COc1cc(C2Oc3cc([C@H]4Oc5cc(O)cc(O)c5C(=O)[C@@H]4O)ccc3OC2CO)ccc1O (some centres unmarked) [Silybin, 3,5,7,-trihydroxy-2-[3-(4-hydroxy-3-methoxyphenil)-2-hydroxymethyl-1,4-benxodioxan-6-il]-chronan-4-one]
SY Effect Alone (C33A cells; SY 150 μM): −54%
SY Effect Alone (CaSki cells; Table II line with DIM 50 μM): −4%
SY Effect Alone (CaSki cells; Table II line with DIM 75 μM): −8%
Sy Alone 150 uM (CaSki cells; Sy 150 uM, Table V): −5%
Logβ-Fe^III [1]: 41.5
